For orientation: Tmax means the time from dosing to the highest level. Usually AUC(0-t) stands for the area under the concentration-time curve up to a stated or last time point. As usually defined, the Cmax is the maximum level reached in the sampled fluid or tissue.

These results are taken from paper PMC7904550, “Application of grouping and read-across for the evaluation of parabens of different chain lengths with a particular focus on endocrine properties” (Archives of Toxicology, 2021).

SMILES strings stand for the structures. Like-named read-outs stand apart in the source and are kept apart here. Marks after values point to notes of the source that are not given here.

A short description of data set [1]: Octanol–water partition coefficient (Log Kow). Format: physicochemical. The settings on record: 23 °C, OECD TG 107. From the text:
(§1) Generally, these parabens have very similar physico-chemical properties.

Data set [2] can be described thus: Grouping and read-across of NOAEL (ECHA RAAF Scenario 5; analogue approach). The settings on record: for NOAEL for systemic repeated-dose toxicity and DART: predicted by read-across from the respective paraben (analogue approach). From the text:
The strength of evidence for the respective AEs was scored by the assessment options indicated in the RAAF ranging from Score 5 (acceptable with high confidence) to Score 1 (not acceptable) (ECHA [2017b]).

For data set [3], the system named is rats. The settings on record: acute oral, ref ECHA dissemination portal, cited from earlier work.
Data set [4] deals with rats. Conditions: cited from earlier work.
Data set [5] has as its system rats. The settings on record: cited from earlier work. This is another data set of the same source.
In data set [6] the test system is rats. Conditions: cited from earlier work. The source holds these as a separate data set.
For another data set, the system named is bacteria. Conditions: ref ECHA dissemination portal, cited from earlier work.
Data set [7] relates to human oestrogen receptor α. Also on record: method as in Watanabe et al. 2013. Conditions: ref Watanabe et al. 2013, cited from earlier work.
Another data set in a line: in vivo. Conditions: for concentration at 1 h / Tmax / AUC(0-t) / Cmax: Wistar, rat, in vivo; for Tmax / AUC(0-t) / Cmax: po; for AUC(0-t) / Cmax / AUC0-1 h/AUC0–t / C1h/Cmax / Clast / tlast: parent compound. As to the method:
These studies were conducted similarly to OECD TG 417 applying 500 and 1000 mg/kg body weight (bw) test item via oral gavage to 10 males and 10 females per dose group. Focus of the toxicokinetic evaluation was on the measurement of the serum concentrations of the parent compounds and their (common) major metabolite p-hydroxybenzoic acid by […] in order to assess the systemic uptake and elimination of the parent compounds and this major metabolite [see also ECHA ([2017a])]. The limit of quantification was determined as 10 ng/mL for all parabens, and as 130 ng/mL for p-hydroxybenzoic acid. […] On account of these major aims, investigations of the faeces and urine were not included in the toxicokinetics screening studies.

On the set-up of data set [8]: method as in Hansch et al. (1995). Conditions: ref Hansch et al. (1995); cited from earlier work.
The test system of a further data set is rabbits. Also on record: method as in ECHA dissemination portal. The settings on record: acute dermal exposure, ref ECHA dissemination portal; cited from earlier work.
Data set [9] concerns rats. The settings on record: 5,000, 15,000 and 40,000 ppm in feed, ref Hubbard et al. 2020, cited from earlier work.
In the next data set the test system is Wistar rats. Also on record: method as in Zhang et al. 2014. Conditions: 400 and 1000 mg/kg bw/day oral gavage; ref Zhang et al. 2014; cited from earlier work.
In another data set the test system is male rats. Details: method as in Hoberman et al. 2008. Conditions: up to 10,000 ppm, corresponding to 1088 ± 68 mg/kg bw/day; ref Hoberman et al. 2008; cited from earlier work.
The test system of another data set is oestrogen receptors. Also on record: method as in Byford et al. 2002. The settings on record: ref Byford et al. 2002; cited from earlier work.
For data set [10] the following is noted: ref Dymicky and Huhtanen (1979), cited in CIR (2008); cited from earlier work.
The conditions of data set [11]: ref Yalkowsky and He (2003); cited from earlier work.
Data set [12] has as its system rats. The settings on record: cited from earlier work. This is another data set of the same source.
Data set [13] concerns human oestrogen receptor β. Details: method as in Watanabe et al. 2013. Conditions: among 12 linear n-alkyl parabens C1 to C12; ref Watanabe et al. 2013; cited from earlier work.
Data set [14] is described as follows: Acid dissociation constant (pKa). It counts as physicochemical.
Text: as §1

Another data set relates to mammalian cells. The settings on record: OECD 476; ref ECHA dissemination portal; cited from earlier work.
The conditions of data set [15]: cited from earlier work.
Setting [16] is: sodium salt, read-across from the respective paraben.

For the compound `CCOC(=O)c1ccc([O-])cc1.[Na+]` [Na-ethyl paraben, Sodium ethyl 4-HBA], the “Log Kow” value in [1] (pH 10.4) was -0.14 at 23 °C, pH 10.4 (OECD TG 107). In addition, the “NOAEL for systemic repeated-dose toxicity and DART” value in data set [2] was 1000 mg/kg bw/day. Moreover, in the data set with rats [3] (rats, OECD 401), the LD50 is listed as 3100 OECD 401; 1982) mg/kg bw. Besides, the “Skin irritation/skin corrosion classification” value with rats [4] (rat, in vivo) was “Not irritating (OECD 404; 1981)”. The “Eye irritation/eye corrosion classification” value in the data set on rats [5] (rat, in vivo) is reported as “Irritating (OECD 405; 1982)”. Further, the Skin sensitisation classification result in the data set on rats [6] (rat, in vivo) is on record as “Not sensitising (read-across from ethyl paraben)”. Also, the “Mutagenicity in bacteria classification” value with bacteria (setting [16]) is listed as “Not mutagenic (read-across from ethyl paraben)”.
Take `C[C@]12CC[C@@H]3c4ccc(O)cc4CC[C@H]3[C@@H]1CC[C@@H]2O` [17β-estradiol, reference compound]: in [7] (receptor subtype not stated), the “Concentration of receptor effects” value is recorded as 2.5 × 10^–12.
With `CCCCCCCOC(=O)c1ccc(O)cc1` [heptyl paraben], the “Concentration of highest potency in activating the receptor” value in data set [7] (among 12 linear n-alkyl parabens C1 to C12) was 10^–7 M.
In the case of `CCCCOC(=O)c1ccc(O)cc1` [Butyl paraben, Butyl 4-hydroxybenzoate], the concentration at 1 h was determined as 31.5 ng/mL in “in vivo” (female, 500 mg/kg); 59.1 ng/mL in “in vivo” (female, 1000 mg/kg); 161 ng/mL in the data set “in vivo” (male, 500 mg/kg); 373 ng/mL in “in vivo” (male, 1000 mg/kg). Also, the Tmax in “in vivo” (female, 500 mg/kg) is 4.8 min; in the data set “in vivo” (female, 1000 mg/kg), 4.8 min. Besides, the exposure AUC(0-t) is 149 ng·h/mL in the data set “in vivo” (female, 500 mg/kg, AUC0-1 h); 336 ng·h/mL in the data set “in vivo” (female, 500 mg/kg, AUC0–t); 191 ng·h/mL in “in vivo” (female, 1000 mg/kg, AUC0-1 h); 404 ng·h/mL in “in vivo” (female, 1000 mg/kg, AUC0–t); 300 ng·h/mL in “in vivo” (male, 500 mg/kg, AUC0-1 h); 705 ng·h/mL in the data set “in vivo” (male, 500 mg/kg, AUC0–t). Also, the AUC(0-t) in the data set “in vivo” (male, 1000 mg/kg, AUC0-1 h) worked out at 860 ng·h/mL; in “in vivo” (male, 1000 mg/kg, AUC0–t), 1580 ng·h/mL. Besides, the maximum concentration (Cmax) worked out at 741 ng/mL in “in vivo” (female, 500 mg/kg); 854 ng/mL in the data set “in vivo” (female, 1000 mg/kg); 1770 ng/mL in “in vivo” (male, 500 mg/kg); 6520 ng/mL in “in vivo” (male, 1000 mg/kg); 7000 ng/mL in the data set “in vivo” (male, 1000 mg/kg, males). For the same compound, the “AUC0-1 h/AUC0–t” value in “in vivo” (500 mg/kg, female) amounted to 44%; in “in vivo” (500 mg/kg, male) it was 43%; in “in vivo” (1000 mg/kg, female) it was 47%; in the data set “in vivo” (1000 mg/kg, male), 54%. For the same compound, the C1h/Cmax in the data set “in vivo” (500 mg/kg, female) is listed as 4.3%; in “in vivo” (500 mg/kg, male), 9.1%; in “in vivo” (1000 mg/kg, female), 6.9%; in the data set “in vivo” (1000 mg/kg, male), 5.7%. Besides, the Clast in “in vivo” (500 mg/kg, female) is reported as 23.9 ng/mL; in the data set “in vivo” (500 mg/kg, male), 49.2 ng/mL; in “in vivo” (1000 mg/kg, female), 23.6 ng/mL; in “in vivo” (1000 mg/kg, male) it was 18.4 ng/mL. Moreover, the tlast in the data set “in vivo” (500 mg/kg, female) was 8.0 h; in the data set “in vivo” (500 mg/kg, male) it was 8.0 h; in “in vivo” (1000 mg/kg, female), 8.0 h; in “in vivo” (1000 mg/kg, male), 8.0 h. Also, the “NOAEL for repeated-dose toxicity and DART” value in [2] (extrapolation, appears justifiable) is on record as 1000 mg/kg bw/day. For the same compound, in data set [8], the “Log Kow” value is 3.54 [d]. For the same compound, in the data set on rabbits, the NOAEL entry was “[b] A further acute toxicity study was conducted as dermal exposure study in rabbits yielding NOAEL > 2000 mg/kg bw”. The “Adverse alterations of fertility, fecundity, pubertal attainment or any reproductive parameters” value in the data set on rats [9] (parent, first, second generation) is “no association”. Also, in the data set on rats [9], the Liver findings result is “exposure-dependent increases in liver weight and incidences of non-neoplastic liver lesions”. For the same compound, the “Epididymal sperm count and daily sperm production” value in the data set with Wistar rats is “dose-dependently reduced epididymal sperm count and daily sperm production”. Also, the “Effects in male rats” value in the data set on male rats is “no effects”. The “Rank of oestrogen receptor activation among shorter-chained parabens” value in the data set on oestrogen receptors was “the most activation”. Also, the pKa in data set [10] was 8.37 [c]. The Water solubility entry in data set [11] is “Insoluble [e]”. In the data set with rats [3] (OECD 423, read-across from iso-butyl paraben), the LD50 is > 2000 (read across; OECD 423; 2018) [a, b] mg/kg bw. Also, the “Skin irritation/skin corrosion classification” value in the data set on rats [4] (read-across from iso-butyl paraben, OECD 439, ref ECHA dissemination portal) is “Irritating (read-across; OECD 439; 2016) [a]”. For the same compound, the “Eye irritation/eye corrosion classification” value in the data set with rats [5] (read-across from iso-butyl paraben, OECD 437, ref ECHA dissemination portal) was “Ser. eye damage (read-across; OECD 437; 2016) [a]”. Also, in the data set with rats [6] (read-across from iso-butyl paraben, OECD 429, ref ECHA dissemination portal), the Skin sensitisation classification entry is “Not sensitising (read-across; OECD 429; 2016) [a]”. Further, in the data set on bacteria (read-across from iso-butyl paraben, OECD 471), the “Mutagenicity in bacteria classification” value is “Not mutagenic (read-across; OECD 471; 2016) [a]”. In the data set on rats [12] (derived from Zhang et al. (2014), ref CIR 2019), the “NOAEL, point-of-departure” value is recorded as 160 mg/kg bw/day. The NOEL in the data set on rats [12] (juvenile rats, subcutaneous, 17 days (PND 2-18), single dose tested (Fisher et al. 1999), ref SCCS 2010) is 2 mg/kg bw/day.
`CCCCCOC(=O)c1ccc(O)cc1` [pentyl paraben]: in data set [13], the “Concentration of highest potency in activating the receptor” value is 10^–8 M.
Regarding `COC(=O)c1ccc([O-])cc1.[Na+]` [Na-methyl paraben, Sodium methyl 4-HBA], in data set [14], the pKa is recorded as 8.4 (OECD TG 112). Further, the “Mutagenicity in bacteria classification” value in the data set on bacteria (OECD 471) is “Not mutagenic [a] (OECD 471; 2012)”. The “Mutagenicity in mammalian cells classification” value with mammalian cells was “Not mutagenic [a] (OECD 476; 2012)”.
As to `CCCOC(=O)c1ccc([O-])cc1.[Na+]` [Na-propyl paraben, Sodium propyl 4-HBA], the “Log Kow” value in data set [1] (pH 10.8) is 0.27 at 23 °C, pH 10.8 (OECD TG 107). In data set [2], the “NOAEL for systemic repeated-dose toxicity and DART” value is given as 1000 mg/kg bw/day. The LD50 in the data set on rats [3] (rats, OECD 401) is > 5000 OECD 401; 1982) mg/kg bw. In addition, the “Skin irritation/skin corrosion classification” value in the data set with rats [4] (rat, in vivo) is given as “Not irritating (OECD 404; 1982)”. Moreover, the “Eye irritation/eye corrosion classification” value in the data set with rats [5] (rat, in vivo) is “Serious eye damage (OECD 405; 1983)”. Further, the “Mutagenicity in bacteria classification” value in the data set with bacteria (setting [16]) is given as “Not mutagenic (read-across from propyl paraben)”.
Regarding `O=C(O)c1ccc(O)cc1` [p-hydroxybenzoic acid], in [15] (ref ECHA registration dossier 15944), the “Systemic toxicity and DART” value was “no systemic toxicity and no DART”. In addition, the Endocrine activity entry in [15] (substance evaluation, REACH Article 48, ref ECHA 2014) is reported as “does not exhibit any endocrine activity”.
